Patent US9006487B2, “Amine-containing lipids and uses thereof” (Massachusetts Institute of Technology, priority 2005, dated 2015)

Test system: cos-7 cells
Assay: DNA transfection: luciferase expression relative to Lipofectamine 2000
Format: cell-based
Details: for luciferase expression (second part of table, values relative to LIPO2000): 300 ng of DNA per well; for Luciferase expression as a percentage of that achieved using Lipofectamine 2000: 300 ng Luciferase DNA per well; for Luciferase expression as a percentage of that achieved using Lipofectamine 2000 / % of the luciferase activity obtained from the use of Lipofectamine 2000: luciferase assay after 48 hours; for % of the luciferase activity obtained from the use of Lipofectamine 2000: 300 ng DNA per well
In short: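 Lipid/DNA complexes, 300 ng luciferase DNA per well at 2.5-25 w/w lipid:DNA, were formed in sodium acetate/Optimem and added to overnight-seeded cos-7 cells. Luciferase was measured by Bright-Glo luminescence after 48 hours and quantified against an enzyme standard curve. Values are expressed as % of Lipofectamine 2000 at 2.5 w/w.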

SMILES | Luciferase expression as a percentage of that achieved using Lipofectamine 2000 (lipid/DNA 2.5 w/w) [%] | Luciferase expression as a percentage of that achieved using Lipofectamine 2000 (lipid/DNA 5 w/w) [%] | Luciferase expression as a percentage of that achieved using Lipofectamine 2000 (lipid/DNA 10 w/w) [%] | Luciferase expression as a percentage of that achieved using Lipofectamine 2000 (lipid/DNA 15 w/w) [%] | Luciferase expression as a percentage of that achieved using Lipofectamine 2000 (lipid/DNA 20 w/w) [%] | Luciferase expression as a percentage of that achieved using Lipofectamine 2000 (lipid/DNA 25 w/w) [%] | further results
CCCCCCCCCCCCNC(=O)CCN(CCC(=O)NCCCCCCCCCCCC)C(C)(CO)CO [ND26] |  |  |  |  |  |  | luciferase expression (second part of table, values relative to LIPO2000) (lipid/DNA 2.5 w/w): 13.4; luciferase expression (second part of table, values relative to LIPO2000) (lipid/DNA 5 w/w): 2.3; luciferase expression (second part of table, values relative to LIPO2000) (lipid/DNA 10 w/w): 0.1; luciferase expression (second part of table, values relative to LIPO2000) (lipid/DNA 15 w/w): 0.0; luciferase expression (second part of table, values relative to LIPO2000) (lipid/DNA 20 w/w): 0.0; luciferase expression (second part of table, values relative to LIPO2000) (lipid/DNA 25 w/w): 0.0
CCCCCCCCCCCCNC(=O)CCN(CCC(=O)NCCCCCCCCCCCC)CCN(CCO)CCO [ND86] | 0.5 | 0.2 | 0.0 | 0.0 | 0.0 | 0.0 | 
CCCCCCCCCCCCNC(=O)CCN(CCCN(CCO)CCO)CCC(=O)NCCCCCCCCCCCC [ND87] | 0.0 | 0.0 | 0.0 | 0.0 | 0.0 | 0.0 | 
CCCCCCCCCCOC(=O)CC[N+](C)(CCCOC)CCC(=O)OCCCCCCCCCC.[I-] [QB1] | 0.4 | 0.3 | 0.4 | 0.3 | 0.4 | 0.4 | 
CCCCCCCCCCOC(=O)CC[N+](C)(CCC(=O)OCCCCCCCCCC)CCC1OCCO1.[I-] [QB6] | 0.0 | 0.0 | 0.0 | 0.0 | 0.0 | 0.0 | 
CCCCCCCCCCOC(=O)CC[N+](C)(CCC(=O)OCCCCCCCCCC)CC1COC(C)(C)O1.[I-] (stereo not drawn) [QB7] | 0.0 | 0.0 | 0.0 | 0.0 | 0.0 | 0.0 | 
CCCCCCCCCCCCOC(=O)CC[N+](C)(CCCCO)CCC(=O)OCCCCCCCCCCCC.[I-] [QD28] |  |  | 0.1 | 0.1 |  |  | 
CCCCCCCCCCCCOC(=O)CC[N+](C)(CCC(=O)OCCCCCCCCCCCC)CC[N+](C)(CCO)CCO.[I-].[I-] [QD86] |  |  | 2.0 | 2.0 |  |  | 
CCCCCCCCCCCCOC(=O)CC[N+](C)(CCC[N+](C)(CCO)CCO)CCC(=O)OCCCCCCCCCCCC.[I-].[I-] [QD87] |  |  | 0.5 | 0.7 |  |  | 
CCCCCCCCCCCCCCOC(=O)CC[N+](C)(CCCOC)CCC(=O)OCCCCCCCCCCCCCC.[I-] [QF1] | 0.4 | 0.3 | 0.4 | 0.3 | 0.3 | 0.3 | 
CCCCCCCCCCCCCCOC(=O)CC[N+](C)(CCC(=O)OCCCCCCCCCCCCCC)CCC1OCCO1.[I-] [QF6] | 0.0 | 0.0 | 0.0 | 0.0 | 0.0 | 0.0 | 
CCCCCCCCCCCCCCOC(=O)CC[N+](C)(CCC(=O)OCCCCCCCCCCCCCC)CC1COC(C)(C)O1.[I-] (stereo not drawn) [QF7] | 0.0 | 0.0 | 0.0 | 0.0 | 0.0 | 0.0 | 
CCCCCCCCCCCCCCOC(=O)CC[N+](C)(CCC(=O)OCCCCCCCCCCCCCC)CCC1CCC[N+]1(C)C.[I-].[I-] (stereo not drawn) [QF77] | 0.4 | 0.4 | 0.7 | 1.3 | 2.7 | 9.9 | 
CCCCCCCCCCCCCCCOC(=O)CC[N+](C)(CCCOC)CCC(=O)OCCCCCCCCCCCCCCC.[I-] [QG1] | 0.4 | 0.5 | 0.4 | 0.4 | 0.3 | 0.3 | 
CCCCCCCCCCCCCCCOC(=O)CC[N+](C)(CCC(=O)OCCCCCCCCCCCCCCC)CCC1OCCO1.[I-] [QG6] | 0.0 | 0.0 | 0.0 | 0.0 | 0.0 | 0.0 | 
CCCCCCCCCCCCCCCOC(=O)CC[N+](C)(CCC(=O)OCCCCCCCCCCCCCCC)CC1COC(C)(C)O1.[I-] (stereo not drawn) [QG7] | 0.4 | 0.3 | 0.5 | 0.3 | 0.4 | 0.3 | 
CCCCCCCCCCCCCCCOC(=O)CC[N+](C)(CCC(=O)OCCCCCCCCCCCCCCC)CCC1CCC[N+]1(C)C.[I-].[I-] (stereo not drawn) [QG77] | 0.5 | 0.6 | 1.5 | 5.6 | 18.8 | 29.5 | 
CCCCCCCCCCCCCCCOC(=O)CC[N+](C)(CCC[N+](C)(CCO)CCO)CCC(=O)OCCCCCCCCCCCCCCC [QG87] |  |  |  |  |  |  | % of the luciferase activity obtained from the use of Lipofectamine 2000 (2.5 w/w lipid to DNA): 89.0%; % of the luciferase activity obtained from the use of Lipofectamine 2000 (5 w/w lipid to DNA): 94.0%; % of the luciferase activity obtained from the use of Lipofectamine 2000 (10 w/w lipid to DNA): 42.4%; % of the luciferase activity obtained from the use of Lipofectamine 2000 (15 w/w lipid to DNA): 64.7%; % of the luciferase activity obtained from the use of Lipofectamine 2000 (20 w/w lipid to DNA): 62.1%; % of the luciferase activity obtained from the use of Lipofectamine 2000 (25 w/w lipid to DNA): 44.1%; luciferase expression (second part of table, values relative to LIPO2000) (lipid/DNA 2.5 w/w): 89.0; luciferase expression (second part of table, values relative to LIPO2000) (lipid/DNA 5 w/w): 94.0; luciferase expression (second part of table, values relative to LIPO2000) (lipid/DNA 10 w/w): 42.4; luciferase expression (second part of table, values relative to LIPO2000) (lipid/DNA 15 w/w): 64.7; luciferase expression (second part of table, values relative to LIPO2000) (lipid/DNA 20 w/w): 62.1; luciferase expression (second part of table, values relative to LIPO2000) (lipid/DNA 25 w/w): 44.1
CCCCCCCCCCCCCCCOC(=O)CC[N+](C)(CCC[N+](C)(CCC(=O)OCCCCCCCCCCCCCCC)CCC(=O)OCCCCCCCCCCCCCCC)CCC(=O)OCCCCCCCCCCCCCCC [QG100] |  |  |  |  |  |  | % of the luciferase activity obtained from the use of Lipofectamine 2000 (2.5 w/w lipid to DNA): 11.2%; % of the luciferase activity obtained from the use of Lipofectamine 2000 (5 w/w lipid to DNA): 32.1%; % of the luciferase activity obtained from the use of Lipofectamine 2000 (10 w/w lipid to DNA): 57.1%; % of the luciferase activity obtained from the use of Lipofectamine 2000 (15 w/w lipid to DNA): 102.6%; % of the luciferase activity obtained from the use of Lipofectamine 2000 (20 w/w lipid to DNA): 93.0%; % of the luciferase activity obtained from the use of Lipofectamine 2000 (25 w/w lipid to DNA): 94.5%; luciferase expression (second part of table, values relative to LIPO2000) (lipid/DNA 2.5 w/w): 11.2; luciferase expression (second part of table, values relative to LIPO2000) (lipid/DNA 5 w/w): 32.1; luciferase expression (second part of table, values relative to LIPO2000) (lipid/DNA 10 w/w): 57.1; luciferase expression (second part of table, values relative to LIPO2000) (lipid/DNA 15 w/w): 102.6; luciferase expression (second part of table, values relative to LIPO2000) (lipid/DNA 20 w/w): 93.0; luciferase expression (second part of table, values relative to LIPO2000) (lipid/DNA 25 w/w): 94.5
